Experiments:
[1] = molecular target: rice α-glucosidase (Oryza sativa subsp. japonica, UniProt Q653V7); assay: Glycosidase inhibition, laboratory 1: rice α-glucosidase; assay type: biochemical; conditions: methanol
[2] = test system: rat intestinal maltase α-glucosidase; assay: Glycosidase inhibition, laboratory 1: rat intestinal maltase; assay type: biochemical; conditions: rat intestinal maltase, methanol
Description: (§1) The enzymes α-glucosidase (from yeast), β-glucosidases (from almond and bovine liver), α-galactosidase (from coffee beans), β-galactosidase (from bovine liver), α-mannosidase (from Jack bean), β-mannosidase (from snail), α-L-rhamnosidase (from Penicillium decumbens), α-L-fucosidase (from bovine kidney), trehalase (from porcine kidney), β-glucuronidases (from E. coli and bovine liver), amyloglucosidase (from A. niger), para-nitrophenyl glycosides, and various disaccharides were purchased from Sigma-Aldrich Co (St Louis, MO, USA).
(§2) Brush border membranes were prepared from the rat small intestine according to the method of Kessler et al. and were assayed at pH 6.8 for rat intestinal maltase using maltose. For rat intestinal maltase, porcine kidney trehalase, and A. niger amyloglucosidase activities, the reaction mixture contained 25 mM maltose and the appropriate amount of enzyme, and the incubations were performed for 10–30 min at 37 °C. The reaction was stopped by heating at 100 °C for 3 min. After centrifugation (600× g; 10 min), the resulting reaction mixture was added to the Glucose CII-test Wako (Wako Pure Chemical Ind., Osaka, Japan). The absorbance at 505 nm was measured to determine the amount of the released D-glucose. Other glycosidase activities were determined using an appropriate para-nitrophenyl glycoside as substrate at the optimum pH of each enzyme. The reaction mixture contained 2 mM of the substrate and the appropriate amount of enzyme. The reaction was stopped by addition of 400 mM Na2CO3. The released para-nitrophenol was measured spectrometrically at 400 nm. All reactions run in methanol.

[3] = test system: snail β-mannosidase; assay: Glycosidase inhibition, laboratory 1: snail β-mannosidase; assay type: biochemical; conditions: methanol
Description: as §1, §2

[4] = molecular target: T1, E. coli β-glucuronidase (Escherichia coli, UniProt P05804); assay: Glycosidase inhibition, laboratory 1: E. coli β-glucuronidase; assay type: biochemical
T1 construct: purchased Sigma-Aldrich Co
Description: as §1, §2

[5] = test system: porcine kidney trehalase; assay: Glycosidase inhibition, laboratory 1: trehalase; assay type: biochemical; conditions: 100 μM, methanol
Description: as §1, §2

[6] = molecular target: T2, yeast α-glucosidase (Saccharomyces cerevisiae, UniProt P53341); assay: Glycosidase inhibition, laboratory 2: yeast α-glucosidase; assay type: biochemical
T2 construct: purchased Sigma
Experimental: (§3) All enzymes and para-nitrophenyl substrates were purchased from Sigma. Enzymes were assayed at 27 °C in 0.1 M citric acid/0.2 M disodium hydrogen phosphate buffers at the optimum pH for the enzyme. The incubation mixture consisted of 10 μL enzyme solution, 10 μL of 1 mg/mL aqueous solution of extract and 50 μL of the appropriate 5 mM para-nitrophenyl substrate made up in buffer at the optimum pH for the enzyme. The reactions were stopped by addition of 70 μL 0.4 M glycine (pH 10.4) during the exponential phase of the reaction, which had been determined at the beginning using uninhibited assays in which water replaced inhibitor. Final absorbances were read at 405 nm using a Versamax microplate reader (Molecular Devices). Assays were carried out in triplicate, and the values given are means of the three replicates per assay. All reactions run in water.

[7] = test system: Bacillus α-glucosidase; assay: Glycosidase inhibition, laboratory 2: Bacillus α-glucosidase; assay type: biochemical; conditions: water
Experimental: as §3

[8] = test system: bovine liver β-glucuronidase; assay: Glycosidase inhibition, laboratory 2: bovine liver β-glucuronidase; assay type: biochemical; conditions: water
Experimental: as §3

[9] = test system: U87; assay: MTT cell growth inhibition: U87; assay type: cell-based; conditions: U87 glioblastoma
Experimental: (§4) All test agents were prepared as stock solutions (20 mM) in dimethyl sulfoxide (DMSO) and stored at −20 °C. Cell lines used in the study included HT29 (colorectal carcinoma); U87, SJ-G2, (glioblastoma); MCF-7, (breast carcinoma); A2780 (ovarian carcinoma); H460 (lung carcinoma); A431 (skin carcinoma); Du145 (prostate carcinoma); BE2-C (neuroblastoma); MiaPaCa-2 (pancreatic carcinoma); and SMA560 (spontaneous murine astrocytoma), together with the one non-tumour-derived normal breast cell line (MCF10A). All cell lines were incubated in a humidified atmosphere 5% CO2 at 37 °C. The cancer cell lines were maintained in Dulbecco’s modified Eagle’s medium (DMEM; Sigma, Australia) supplemented with foetal bovine serum (10%), sodium pyruvate (10 mM), penicillin (100 IUmL^−1), streptomycin (100 µg mL^−1) and L-glutamine (2 mM).
(§5) Growth inhibition was determined by plating cells in duplicate in medium (100 µL) at a density of 2500–4000 cells per well in 96-well plates. On day 0 (24 h after plating), when the cells were in logarithmic growth, medium (100 µL) with or without the test agent was added to each well. After 72 h drug exposure, growth inhibitory effects were evaluated using the MTT (3-(4,5-dimethyltiazol-2-yl)-2,5-diphenyltetrazolium bromide) assay and absorbance read at 540 nm. The percentage growth inhibition was calculated at a fixed concentration of 25 µM, based on the difference between the optical density values on day 0 and those at the end of drug exposure. Each data point is the mean ± the standard error of the mean (SEM) calculated from three replicates which were performed on separate occasions and separate cell line passages.

[10] = test system: A2780; assay: MTT cell growth inhibition: A2780; assay type: cell-based; conditions: A2780 ovarian carcinoma
Experimental: as §4, §5

[11] = test system: Du145; assay: MTT cell growth inhibition: Du145; assay type: cell-based; conditions: 72 h
Experimental: as §4, §5

[12] = test system: BE2-C; assay: MTT cell growth inhibition: BE2-C; assay type: cell-based; conditions: BE2-C neuroblastoma, 72 h
Experimental: as §4, §5

[13] = test system: SJ-G2; assay: MTT cell growth inhibition: SJ-G2; assay type: cell-based; conditions: SJ-G2 glioblastoma, 72 h
Experimental: as §4, §5

[14] = test system: MCF10A; assay: MTT cell growth inhibition: MCF10A normal breast; assay type: cell-based; conditions: 72 h
Experimental: as §4
The non-cancer MCF10A cell line was maintained in DMEM:F12 (1:1) cell culture media, 5% heat-inactivated horse serum, supplemented with penicillin (50 IUmL^−1), streptomycin (50 µg mL^−1), HEPES (20 mM), L-glutamine (2 mM), epidermal growth factor (20 ng mL^−1), hydrocortisone (500 ng mL^−1), cholera toxin (100 ng mL^−1) and insulin ([…]).
as §5

T2 sequence (P53341 whole entry): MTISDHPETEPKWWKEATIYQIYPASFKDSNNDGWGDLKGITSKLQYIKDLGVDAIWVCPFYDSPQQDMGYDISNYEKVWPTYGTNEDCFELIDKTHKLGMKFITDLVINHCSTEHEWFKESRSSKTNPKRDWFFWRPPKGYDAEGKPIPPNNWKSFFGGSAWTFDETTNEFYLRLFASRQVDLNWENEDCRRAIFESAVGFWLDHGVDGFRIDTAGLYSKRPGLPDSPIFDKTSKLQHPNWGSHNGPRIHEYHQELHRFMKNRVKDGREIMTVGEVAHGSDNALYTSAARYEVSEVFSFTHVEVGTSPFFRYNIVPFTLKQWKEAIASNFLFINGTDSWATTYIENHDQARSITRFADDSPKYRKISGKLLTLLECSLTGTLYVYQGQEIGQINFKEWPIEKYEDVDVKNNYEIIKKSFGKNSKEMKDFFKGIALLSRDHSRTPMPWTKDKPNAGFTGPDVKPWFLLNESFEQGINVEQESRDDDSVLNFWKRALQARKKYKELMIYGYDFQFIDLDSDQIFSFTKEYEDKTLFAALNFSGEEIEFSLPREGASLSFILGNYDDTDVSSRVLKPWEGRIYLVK
T1 sequence (P05804 whole entry): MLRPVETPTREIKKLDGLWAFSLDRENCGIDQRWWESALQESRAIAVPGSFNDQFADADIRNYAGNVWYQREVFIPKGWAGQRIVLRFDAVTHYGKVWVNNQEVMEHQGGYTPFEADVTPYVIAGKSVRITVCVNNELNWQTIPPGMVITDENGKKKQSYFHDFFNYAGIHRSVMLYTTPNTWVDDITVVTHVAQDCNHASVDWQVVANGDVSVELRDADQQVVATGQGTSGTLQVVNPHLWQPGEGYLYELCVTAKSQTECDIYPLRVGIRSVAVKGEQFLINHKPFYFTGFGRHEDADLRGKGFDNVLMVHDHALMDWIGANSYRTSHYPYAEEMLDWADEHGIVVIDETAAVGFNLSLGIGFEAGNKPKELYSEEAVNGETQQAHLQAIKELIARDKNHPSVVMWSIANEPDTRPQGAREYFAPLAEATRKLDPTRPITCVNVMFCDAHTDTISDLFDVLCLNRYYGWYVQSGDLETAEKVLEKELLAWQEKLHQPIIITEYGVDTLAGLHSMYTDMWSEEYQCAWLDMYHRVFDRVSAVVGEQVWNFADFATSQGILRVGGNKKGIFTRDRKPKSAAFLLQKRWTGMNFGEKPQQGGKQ
rice α-glucosidase, sequence (Q653V7 34-885): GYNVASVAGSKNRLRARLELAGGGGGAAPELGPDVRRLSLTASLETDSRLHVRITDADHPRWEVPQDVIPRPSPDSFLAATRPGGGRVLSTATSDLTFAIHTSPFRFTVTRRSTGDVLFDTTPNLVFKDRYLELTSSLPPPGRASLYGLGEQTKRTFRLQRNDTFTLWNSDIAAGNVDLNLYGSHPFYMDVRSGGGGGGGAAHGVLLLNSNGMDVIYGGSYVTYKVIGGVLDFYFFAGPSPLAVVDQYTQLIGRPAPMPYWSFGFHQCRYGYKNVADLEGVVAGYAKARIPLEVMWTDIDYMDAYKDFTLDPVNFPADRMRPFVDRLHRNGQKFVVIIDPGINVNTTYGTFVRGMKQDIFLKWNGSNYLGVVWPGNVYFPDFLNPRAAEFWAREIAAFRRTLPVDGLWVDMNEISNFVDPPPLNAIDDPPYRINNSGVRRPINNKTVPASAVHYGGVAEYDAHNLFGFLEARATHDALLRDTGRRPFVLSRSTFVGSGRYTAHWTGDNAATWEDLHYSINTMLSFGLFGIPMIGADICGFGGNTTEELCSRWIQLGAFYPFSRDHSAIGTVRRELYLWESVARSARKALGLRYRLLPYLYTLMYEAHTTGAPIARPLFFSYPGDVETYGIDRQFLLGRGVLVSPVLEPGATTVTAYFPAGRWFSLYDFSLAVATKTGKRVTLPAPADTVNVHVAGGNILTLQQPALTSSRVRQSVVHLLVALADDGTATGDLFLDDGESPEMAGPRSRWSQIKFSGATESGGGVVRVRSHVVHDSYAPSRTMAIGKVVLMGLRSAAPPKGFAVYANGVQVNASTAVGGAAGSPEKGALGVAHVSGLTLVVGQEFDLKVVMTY

CC1(C)OB(c2cccc(CN3C(=O)c4c(Cl)c(Cl)c(Cl)c(Cl)c4C3=O)c2)OC1(C)C [meta 3, 4,5,6,7-Tetrachloro-2-(3-(4,4,5,5-tetramethyl-1,3,2-dioxaborolan-2-yl)benzyl)isoindoline-1,3-dione]
inhibition at 10 µM ([1]; 10 μM): 5.1%
inhibition % at 10 μM ([2]; 10 μM): ^cNI ^d (22.1%)
inhibition % at 10 μM ([3]; 10 μM): ^cNI ^d (1.1%)
inhibition at 10 µM ([4]; read-out: inhibition % at 10 μM): 6.1%
inhibition % at 100 μM [5]: ^aNI ^b (0%)
inhibition at 400 µM ([6]; read-out: % inhibition at ~400 μM, water): 32.2%
% inhibition at ~400 μM [7]: 31.7%
% inhibition at ~400 μM [8]: 5.8%
GI50 ([9]; Homo sapiens, U-87 MG, read-out: GI50 = Concentration (µM) that inhibits cell growth by 50%, dose response): 19 ± 1.5 µM
inhibition at 25 µM ([9]; Homo sapiens, U-87 MG, 25 µM, 72 h, MTT, read-out: Percentage (%) Cell Growth Inhibition in response to 25 µM of Drug): 70 ± 8%
GI50 ([10]; Homo sapiens, read-out: GI50 = Concentration (µM) that inhibits cell growth by 50%, dose response): 19 ± 0.33 µM
inhibition at 25 µM ([10]; Homo sapiens, 25 µM, 72 h, MTT, read-out: Percentage (%) Cell Growth Inhibition in response to 25 µM of Drug): 70 ± 2%
inhibition at 25 µM ([11]; Homo sapiens, DU-145, Du145 prostate carcinoma, read-out: Percentage (%) Cell Growth Inhibition in response to 25 µM of Drug): 43 ± 13%
inhibition at 25 µM ([12]; Homo sapiens, BE(2)-C, read-out: Percentage (%) Cell Growth Inhibition in response to 25 µM of Drug): 45 ± 2%
inhibition at 25 µM ([13]; read-out: Percentage (%) Cell Growth Inhibition in response to 25 µM of Drug): 35 ± 4%
inhibition at 25 µM ([14]; Homo sapiens, MCF-10A, read-out: Percentage (%) Cell Growth Inhibition in response to 25 µM of Drug): 69 ± 7%

N[C@@H](Cc1ccc(B(O)O)cc1)C(=O)O [^10B-BPA, reference compound]
inhibition % at 100 μM ([1]; 100 μM): ^cNI ^d(0%)
inhibition % at 100 μM ([2]; 100 μM): ^cNI ^d (0%)
inhibition % at 100 μM ([3]; 100 μM): ^cNI ^d (0.3%)
inhibition % at 100 μM ([4]; E. coli β-glucuronidase, 100 μM, methanol): ^cNI ^d (2.4%)
inhibition % at 100 μM [5]: ^cNI ^d (0%)
% inhibition at ~400 μM ([6]; water): 3.4%
% inhibition at ~400 μM ([7]; 400 µM): 19.5%
% inhibition at ~400 μM ([8]; 400 µM): −1%
Percentage (%) Cell Growth Inhibition in response to 25 µM of Drug ([9]; 25 µM, 72 h, MTT): <0%
Percentage (%) Cell Growth Inhibition in response to 25 µM of Drug ([10]; 25 µM, 72 h, MTT): 8 ± 4%
Percentage (%) Cell Growth Inhibition in response to 25 µM of Drug ([11]; Du145 prostate carcinoma): 15 ± 9%
Percentage (%) Cell Growth Inhibition in response to 25 µM of Drug [12]: 10 ± 6%
Percentage (%) Cell Growth Inhibition in response to 25 µM of Drug [13]: 5 ± 10%
Percentage (%) Cell Growth Inhibition in response to 25 µM of Drug ([14]; MCF10A breast (normal), 25 µM, MTT): <0%

From article PMC9182199, “Borylated 2,3,4,5-Tetrachlorophthalimide and Their 2,3,4,5-Tetrachlorobenzamide Analogues: Synthesis, Their Glycosidase Inhibition and Anticancer Properties in View to Boron Neutron Capture Therapy” (Molecules, 2022)
